# Tests used:
# [1] = Inhibitory activity against alpha-L-fucosidase in bovine kidney; Competitive Inhibition type
# [2] = Inhibitory activity against alpha-L-fucosidase in bovine epididymis at PH of 6.5; Competitive Inhibition type; settings: pH 6.5
# [3] = Inhibitory activity against alpha-L-fucosidase in bovine kidney at PH of 6.5; Mixed Inhibition type; settings: pH 6.5
SMILES,Ki [1],Ki [2],Ki [3]
"O[C@H]1[C@H](O)[C@H](O)O[C@@H](CS)[C@H]1O [(2R,3S,4R,5S,6R)-6-Mercaptomethyl-tetrahydro-pyran-2,3,4,5-tetraol]",42 µM,,
"CC(=O)NCSC1OC(C)C(O)C(O)C1O (stereo not drawn) [N-(3,4,5-Trihydroxy-6-methyl-tetrahydro-pyran-2-ylsulfanylmethyl)-acetamide]",,5.6 µM,4.6 µM
